Source: patent US20070207204A1, “Dosage Form for Time-Varying Patterns of Drug Delivery” (ALZA CORPORATION, priority 2001, published 2007)

Assay: Osmotic pressure of saturated solutions of osmotically effective compounds and mixtures (vapor pressure osmometer)
Format: physicochemical
Settings: saturated solution in water at 37° C.; Model 302B Vapor Pressure Osmometer
Excerpt: The term “osmagent”, as used herein, includes osmotically effective solutes, osmotically effective compounds, and osmotic agents. […] Osmotically effective compounds useful for the present purpose include magnesium sulfate, magnesium chloride, sodium chloride, lithium chloride, potassium sulfate, sodium carbonate, sodium sulfite, lithium sulfate, potassium chloride, calcium bicarbonate, sodium sulfate, calcium sulfate, potassium acid phosphate, calcium lactate, d-mannitol, urea, inositol, magnesium succinate, tartaric acid, carbohydrates such as raffinose, sucrose, glucose, maltodextrins, α-d-lactose monohydrate, and mixtures thereof. The osmotically effective compound in layer 18 can be in any physical form such as particle, crystal, pellet, tablet, strip, ground, pulverized, film, or granule. The osmotic pressure of saturated solutions of various osmotically effective compounds and for mixtures of osmotic compounds at 37° C. in water, is listed in Table 1. The osmotic pressure can be measured by a commercially available osmometer that measures the vapor pressure difference between pure water and the solution to be analyzed. According to standard thermodynamic principles, the vapor pressure difference is converted into osmotic pressure. In Table 1, osmotic pressures of from 20 atm to 500 atm are set forth. However, the invention includes the use of lower osmotic pressures, and higher osmotic pressures than from 20 atm to 500 atm. The osmometer used for the present measurements is Model 302B, Vapor Pressure Osmometer, manufactured by the Hewlett Packard Co., Avondale, Pa.

OSMOTIC PRESSURE (atm)	Structure (SMILES)
36 atm	O.O.O.O.O.O.O.O.O.O.O.O.O=P([O-])([O-])[O-].[Na+].[Na+].[Na+] [Sodium Phosphate Tribasic-12H20]
38 atm	OC[C@@H](O)[C@@H](O)[C@H](O)[C@H](O)CO [Mannitol]
39 atm	O=S(=O)([O-])[O-].[K+].[K+] [Potassium Sulfate]
31 atm	O.O.O.O.O.O.O.O.O.O.O.O.O=P([O-])([O-])O.[Na+].[Na+] [Sodium Phosphate Dibasic-12H20]
29 atm	O=P([O-])([O-])O.[Na+].[Na+] [Sodium Phosphate Dibasic-Anhydrous]
150 atm	OC[C@H]1O[C@@](CO)(O[C@H]2O[C@H](CO)[C@@H](O)[C@H](O)[C@H]2O)[C@@H](O)[C@@H]1O [Sucrose]
31 atm	O.O.O.O.O.O.O.O=P([O-])([O-])O.[Na+].[Na+] [Sodium Phosphate Dibasic-7H20]
28 atm	O.O=P([O-])(O)O.[Na+] [Sodium Phosphate Monobasic-H20]

Structure (SMILES)	OSMOTIC PRESSURE (atm)
[Cl-].[Na+] [Sodium Chloride]	356 atm
O=C(CO)[C@@H](O)[C@H](O)[C@H](O)CO [Fructose]	355 atm
[Cl-].[K+] [Potassium Chloride]	245 atm
